Experiments:
GRPR mRNA in MCF7 cells = experiment: Pharmacological targeting of ERα: GRPR mRNA in MCF7 cells; assay type: cell-based, human; details: 17β-estradiol 100 nM or ICI 182,780 1 µM
Protocol: (§1) RNA (3 µg) was reverse transcribed using M‐MLV reverse transcriptase (Invitrogen), according to the manufacturer’s protocol. The newly synthesized cDNA was used as a template for qPCR with the iTaq Universal SYBR Green Supermix. Technical triplicates were used for each sample and the quantified RNA normalized against TBP (human) or Hprt (mouse) as housekeeping transcripts (Supplementary Tables 9 and 10).
(§2) For hormone depletion, FCS was stripped using the dextran-coated charcoal method. In brief, Norit activated charcoal (C6241-5G, Sigma-Aldrich, final concentration of 0.25%) and Dextran T-70 (31390, Sigma-Aldrich, final concentration of 0.0025%) in 0.25 M sucrose/1.5 mM MgCl2/10 mM HEPES (H4034, Sigma-Aldrich), pH 7.4, were incubated overnight at 4 °C. The volume equivalent to the volume of the FCS to strip was pipetted into a new 50 ml tube and centrifugated at 500g for 10 min to remove the supernatant. The FCS was incubated with the activated charcoal for 12 h at 4 °C. The treated FCS was then filtered through a 0.22-µM pore filter to ensure sterility and mixed with the appropriate phenol red-free medium and PS. Cells were collected using phenol red-free trypsin and starved for oestrogen using phenol red-free/10% stripped FCS for four days. […]

GRPR, Gαq/11 activation = experiment: IP1 detection (HTRF IP-one Gq kit); assay type: cell-based, mouse; details: 4,000 cells, 30 min, 37 °C, StimB buffer, 10 nM GRP, 1 µM RC-3095, 1 µM ICI-182,780 (pre-treatment)
Protocol: IP1 levels were quantified using the HTRF IP-one Gq detection kit (62IPAPEB, Revvity) following the manufacturer’s protocol. We treated 4,000 cells for 30 min at 37 °C in StimB buffer with 10 nM GRP, 1 µM RC-3095, 1 µM ICI-182,780 or DMSO. FRET signals (620 nm and 665 nm, excitation at 385 nm) were measured using a Clariostar plate reader (BMG Labtech).

[1] = system: Grpr expression in ESR1pos 1057 melanoma cells; experiment: Pharmacological targeting of ERα: Grpr expression in 1057 cells; assay type: cell-based, mouse; details: 100 nM E2 or 1 µM ICI 182,780, 72 h, after oestrogen starvation for four days
Protocol: as §1, §2

[2] = biological target: T1, ERα in 1057 mouse melanoma cells (Mus musculus, UniProt P19785); experiment: Western blot of ERα after ICI; assay type: cell-based; details: 1057 cells, ICI 1 μM, 24 h
T1 construct: Effect of ICI treatment on ERα protein levels in murine 1057 melanoma cells; endogenous in cells; host or cells: 1057 mouse melanoma cells (female, ΔEcad, Esr1-positive)
T1 sequence (P19785 1-599): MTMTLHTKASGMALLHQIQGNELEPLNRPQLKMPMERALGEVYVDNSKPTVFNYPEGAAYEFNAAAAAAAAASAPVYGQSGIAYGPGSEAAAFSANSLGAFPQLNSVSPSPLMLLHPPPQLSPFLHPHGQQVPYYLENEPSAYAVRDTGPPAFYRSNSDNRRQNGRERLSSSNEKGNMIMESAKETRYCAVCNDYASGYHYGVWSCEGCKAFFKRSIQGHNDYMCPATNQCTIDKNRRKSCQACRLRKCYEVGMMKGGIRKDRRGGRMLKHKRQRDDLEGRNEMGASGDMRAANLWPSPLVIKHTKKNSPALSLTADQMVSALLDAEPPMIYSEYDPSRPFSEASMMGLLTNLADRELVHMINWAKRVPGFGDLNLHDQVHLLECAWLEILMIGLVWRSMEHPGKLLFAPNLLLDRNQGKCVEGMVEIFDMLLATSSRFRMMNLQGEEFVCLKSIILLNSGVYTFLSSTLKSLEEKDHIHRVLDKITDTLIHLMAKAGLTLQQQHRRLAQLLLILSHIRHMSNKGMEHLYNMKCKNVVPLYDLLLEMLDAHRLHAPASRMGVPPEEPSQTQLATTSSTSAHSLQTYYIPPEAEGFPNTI
Protocol: (§3) Whole-cell lysates were prepared and analysed as described previously. The primary antibodies used were: E-cadherin (610182, BD Transduction Laboratories, dilution 1/1,000); ERα (MA1-27107, Invitrogen, dilution 1/500); YAP (14074, Cell Signaling, dilution 1/1,000); β-actin (A5441, Sigma, dilution 1/5,000); and vinculin (4650, Cell Signaling, dilution 1/5,000). All raw data are provided in Supplementary Fig. 1.

[3] = system: 1057 ΔEcad melanoma cells; experiment: ICI/Fulvestrant experiments: lung metastases after tail-vein injection of 1057 cells; assay type: in vivo, C57BL/6J mice
Protocol: Mouse and human melanoma cells (5 × 10^5) were suspended in 200 µl PBS and injected into the tail veins of eight-week-old C57BL/6J and NSG mice, respectively. Mice were monitored daily and weighed twice weekly. Euthanasia and autopsy were performed following 20% weight loss or reaching ethical end points.
Right lungs were imaged using a Leica MZFLIII binocular microscope with a Scion camera. Metastases were quantified in ImageJ, with macro-metastases (bigger than 0.1 mm) and micro-metastases (0.1 mm or smaller).
In vitro pre-treatment: 1057 melanoma cells (5 × 10^5) were pretreated for 3 days with 1 µM ICI before tail-vein injection. In vivo treatment: 1057 melanoma cells (5 × 10^5) were injected into C57BL/6J mice, followed by […] Fulvestrant (Zentiva) 3 h after injection, then weekly for 3 weeks. Mice were euthanized on day 25 after injection, and lung metastases were assessed by PCR-based Cre transgene detection. DNA was extracted from lung tissue and metastasis burden was analysed statistically.

[4] = system: mouse melanoma cell lines (1057, 1064, 1181, 1039, 1456, 1014); experiment: Matrigel invasion assay, mouse melanoma cells; assay type: cell-based; details: 24 h
Protocol: Matrigel invasion assays were done in transwell plates with 8.0-µm pores (353097, Falcon) coated with 100 µl of 200 µg ml^−1 Matrigel. Depending on the experiments, cells were seeded directly or 24 h after transfection in low-serum medium (0.5% FCS for murine cells and 1% for human cell lines) with 10 nM GRP, 1 µM RC-3095, and/or 1 µM IC 182,780, or in 10% FCS. Then, 24 hours after stimulation, inserts were washed with PBS and non-invading cells were removed. Cells in the inserts were fixed in methanol at −20 °C overnight. The inserts were rinsed and the membrane carefully removed using a sharp scalpel. The membrane was mounted in prolong glass DAPI (1.5 µg ml^−1). Assays were performed in triplicate and automatic counting of invading cells was done using an Image/Fiji macro (10.5281/zenodo.14509394). Sequences of siRNAs are given in Supplementary Table 11.

[5] = system: Daju human melanoma cells; experiment: RT-qPCR and western blot of ESR1/ERα after iCRT3; assay type: cell-based; details: iCRT3 80 μM, 48 h
Protocol: as §1, §3

[6] = system: ΔEcad mouse 1057 melanoma cells; experiment: RT-qPCR of β-catenin targets, Esr1 and Grpr after β-catenin inhibition; assay type: cell-based; details: ΔEcad mouse 1057 cells, iCRT3 10 μM, 48 h (with siRNA targeting Ctnnb1)
Protocol: as §1

[7] = Metabolic stability assay (liver microsomes); assay type: in vitro ADME, mouse
Protocol: Each compound was diluted to a final concentration of 1 µM in 100 mM phosphate buffer (pH 7.4) containing 0.5 mg ml^−1 mouse liver microsomes, 1 mM NADPH regenerating system and 1 mM MgCl2 and incubated at 37 °C for 1 h. At various time points (0, 2, 10, 20, 40 and 60 min), one volume of ice-cold acetonitrile was added and the supernatants were analysed by LC–MS/MS. To obtain a stability curve, the percentage of remaining test compound at each time point was determined by monitoring the peak area. The half-life was estimated from the slope of the initial linear range of the logarithmic curve of the remaining compound (percentage) against time, assuming first-order kinetics.
Analyses were done on a Shimadzu 8030 LC–MS instrument. Chromatographic separations were done at 40 °C using a 2.6-µm C18 Kinetex column (50 × 2.1 mm; Phenomenex). The mobile phase flow rate was set to 0.5 ml min^−1 and the following program applied for the elution: 0 min, 5% B; 0–1.2 min, 5–95% B; 1.2–1.4 min, 95% B; 1.4–1.42 min, 95-5% B; and 1.42–2.8 min, 5% B (solvent A, 0.05% formic acid in water; solvent B, acetonitrile). The injection volume was 1 µl. The mass spectrometer was interfaced with the liquid-chromatography system using an electrospray ion source. The nitrogen nebulizing gas flow was set to 1.5 l min^−1 and the drying gas flow to 15 ml min^−1. […]

C[C@]12CC[C@@H]3c4ccc(O)cc4C[C@@H](CCCCCCCCC[S+]([O-])CCCC(F)(F)C(F)(F)F)[C@H]3[C@@H]1CC[C@@H]2O (stereo partly shown) [ICI 182,780]
GRPR mRNA expression (GRPR mRNA in MCF7 cells): significantly decreased
IP1 production, GRPR-positive cells (GRPR, Gαq/11 activation): reduced IP1 production
Grpr expression [1]: reduced it
ERα protein level [2]: reduced
Visible metastases (%): mice with visible lung metastases / mice injected [3]: 1/6
mice with no metastases ([3]; Fulvestrant 50 mg per kg 3 h after injection of 1057 cells and weekly for three weeks, day 25): 5 of 6
Metastatic burden in lungs, qPCR for the 1057-specific Cre transgene ([3]; Fulvestrant-treated mice (50 mg per kg), day 25): reduced
Metastatic burden in lungs, qPCR for the 1057-specific Cre transgene ([3]; ICI-pretreated 1057 cells, day 25): reduced
mice with no visible metastases ([3]; mice injected with ICI-pretreated 1057 cells (3 days, 1 µM), day 25, control 1 of 11): 9 of 13
invasion potential of 1057 cells, ICI alone ([4]; 1 µM ICI without GRP): no effect
invasion (number of invading cells), GRPR-positive mouse lines ([4]; 1057 (also 1064, GRPR-transduced 1014 and 1181 for RC-3095), 10 nM GRP, 1 µM RC-3095 and/or 1 µM ICI, Matrigel 200 µg ml−1, 0.5% FCS): significantly reduced
invasion (number of invading cells), Grpr-negative mouse lines ([4]; 1181 male Ecad, 1039 female Ecad, 1456 male ΔEcad, 10 nM GRP and/or 1 µM ICI): no effect

CCc1ccc(-c2nc(CSCC(=O)NCCc3ccccc3)c(C)o2)cc1 [iCRT3]
ERα levels at RNA and protein level [5]: reduction
expression of Nkd1, Esr1 and Grpr (RT-qPCR) [6]: decreased the expression of Nkd1, Esr1 and Grpr
GRP-induced invasion after β-catenin inhibition ([4]; 1057 cells, iCRT3 and/or GRP): reduced GRP-induced invasion

C[C@]12CC[C@@H]3c4ccc(O)cc4CC[C@H]3[C@@H]1CC[C@@H]2O [E2, 17β-oestradiol]
GRPR mRNA expression (GRPR mRNA in MCF7 cells): increased GRPR
Grpr expression [1]: increased Grpr expression

COc1ccc(C2(CNC(=O)[C@](C)(Cc3c[nH]c4ccccc34)NC(=O)Nc3ccc([N+](=O)[O-])cc3)CCCCC2)nc1 [PD-176252]
Metabolic stability: t1/2 ([7]; mouse, pH 7.4): 1.5 ± 0.1 min

CC(C)C[C@@H](CN[C@@H](CC(C)C)C(N)=O)NC(=O)[C@H](Cc1c[nH]cn1)NC(=O)CNC(=O)[C@@H](NC(=O)[C@H](C)NC(=O)[C@H](Cc1c[nH]c2ccccc12)NC(=O)[C@H](CCC(N)=O)NC(=O)[C@H]1Cc2c([nH]c3ccccc23)CN1)C(C)C [RC-3095]
metabolic stability, comparison of the two GRPR antagonists ([7]; RC-3095 versus PD-176252, murine plasma and liver microsomes): higher metabolic stability
